Measured values published in ChEMBL document CHEMBL4483862, “Open-source discovery of chemical leads for next-generation chemoprotective antimalarials” (2018).

Test system: Plasmodium berghei
Experiment: Luciferase/luciferin-expressing antifolate-resistant parasites were used to infect a culture of HepG2 cells that were pre-incubated with compounds. Infected hepatocytes emit light due to the luciferase reaction. Assay results are presented as the percent inhibition of light emission compared to control. […]
Format: functional
Conditions: sporozoite; for IC90: read-out: LUCIFERASE INFECTION ASSAY - IC90

SMILES | IC90 [µM] | other results
O=C(c1cccs1)N1CCN(C2c3ccccc3-c3ccccc32)CC1 | > 9.15 | IC50 (PBLUC_HILL_SLOPE 11.4, PBLUC_R_SQUARED 0.0886, read-out: LUCIFERASE INFECTION ASSAY - IC50): > 9.15 µM
CCc1ccc(C(CNC(=O)c2ccc3c(=O)n(-c4ccccc4F)c(=S)[nH]c3c2)N(C)C)cc1 (stereo not drawn) | > 10 | IC50 (PBLUC_HILL_SLOPE 11.1, PBLUC_R_SQUARED 0.257, read-out: LUCIFERASE INFECTION ASSAY - IC50): 9.21 µM
CCNC(=O)C1CCCN(Cc2ccc3ccccc3c2Br)CC1 (stereo not drawn) | 3.91 | IC50 (PBLUC_HILL_SLOPE 11.4, PBLUC_R_SQUARED 0.606, read-out: LUCIFERASE INFECTION ASSAY - IC50): 3.23 µM
COc1ccc(-c2cn3c(-c4ccc(OC)nc4)cnc3cn2)cn1 | > 9.9 | IC50 (PBLUC_HILL_SLOPE 11.1, PBLUC_R_SQUARED 0.0252, read-out: LUCIFERASE INFECTION ASSAY - IC50): 9.58 µM
O=C(Nc1ccc(OC(F)(F)F)cc1)Nc1cc(-c2ccccc2)n[nH]1 | 4.02 | IC50 (PBLUC_HILL_SLOPE 11.1, PBLUC_R_SQUARED 0.558, read-out: LUCIFERASE INFECTION ASSAY - IC50): 3.3 µM
COc1cc(OC)cc(-c2cn3c(-c4cccc(N(C)C)c4)cnc3cn2)c1 | > 8.81 | IC50 (PBLUC_HILL_SLOPE 11.4, PBLUC_R_SQUARED 0.677, read-out: LUCIFERASE INFECTION ASSAY - IC50): 7.8 µM
COc1ccc(-c2cnc3cnc(-c4ccc(CO)cc4)cn23)cc1 | 9.11 | IC50 (PBLUC_HILL_SLOPE 11.2, PBLUC_R_SQUARED 0.457, read-out: LUCIFERASE INFECTION ASSAY - IC50): 7.48 µM
CSc1nc2ccccc2c(=O)n1-c1c(C)cccc1C | > 11.1 | IC50 (PBLUC_HILL_SLOPE 11.2, PBLUC_R_SQUARED 0.357, read-out: LUCIFERASE INFECTION ASSAY - IC50): 10.5 µM
Nc1nc(C2COc3ccccc3O2)ncc1S(=O)(=O)c1ccc(Cl)cc1 (stereo not drawn) | > 8.17 | IC50 (PBLUC_HILL_SLOPE 11.1, PBLUC_R_SQUARED 0.295, read-out: LUCIFERASE INFECTION ASSAY - IC50): 7.39 µM
CSc1nc(Sc2nnc(-c3ccc(C(C)(C)C)cc3)[nH]2)cc(Sc2nnc(-c3ccc(C(C)(C)C)cc3)[nH]2)n1 | > 5.6 | IC50 (PBLUC_HILL_SLOPE 11.3, PBLUC_R_SQUARED 0.117, read-out: LUCIFERASE INFECTION ASSAY - IC50): 5.38 µM
COc1ccc(-c2cnc3cnc(-c4ccc(C(=O)NC5CCCC5)cc4)cn23)cc1 | 7.76 | IC50 (PBLUC_HILL_SLOPE 11.3, PBLUC_R_SQUARED 0.296, read-out: LUCIFERASE INFECTION ASSAY - IC50): 6.39 µM
NC(c1ccccc1)c1csc(Nc2ccc(-c3ccccc3)nn2)n1 (stereo not drawn) | 3.73 | IC50 (PBLUC_HILL_SLOPE 11.1, PBLUC_R_SQUARED 0.371, read-out: LUCIFERASE INFECTION ASSAY - IC50): 3.06 µM
Cc1sc2nc(-c3cccnc3)nc(N3CCN(S(=O)(=O)/C=C/c4ccccc4)CC3)c2c1C | > 10 | IC50 (PBLUC_HILL_SLOPE 11.2, PBLUC_R_SQUARED 0.469, read-out: LUCIFERASE INFECTION ASSAY - IC50): 8.64 µM
CCOC(=O)c1c(C)nc(-c2ccco2)nc1SCc1ncc(-c2ccc(F)cc2)o1 | 3.58 | IC50 (PBLUC_HILL_SLOPE 11.1, PBLUC_R_SQUARED 0.631, read-out: LUCIFERASE INFECTION ASSAY - IC50): 2.94 µM
O=C(Nn1cnc2sc3c(c2c1=O)CCCC3)c1cc(Br)ccc1O | > 10 | IC50 (PBLUC_HILL_SLOPE 11.5, PBLUC_R_SQUARED 0.145, read-out: LUCIFERASE INFECTION ASSAY - IC50): 9.56 µM
CCN1C(=O)N(C2Cc3ccccc3C2)C(=O)C12CCN(Cc1ccc(-c3ccco3)cc1)CC2 | > 7.03 | IC50 (PBLUC_HILL_SLOPE 11.2, PBLUC_R_SQUARED 0.677, read-out: LUCIFERASE INFECTION ASSAY - IC50): 6.46 µM
CCCNC(=O)c1c(NC(=O)c2cc(OC)cc(OC)c2)nc2ccccn12 | > 8.63 | IC50 (PBLUC_HILL_SLOPE 11.4, PBLUC_R_SQUARED 0.597, read-out: LUCIFERASE INFECTION ASSAY - IC50): 7.32 µM
COc1cc(OC)c(C2=CCN(c3cc(=O)n4ccccc4n3)CC2)c(OC)c1 | > 10 | IC50 (PBLUC_HILL_SLOPE 11.4, PBLUC_R_SQUARED 0.492, read-out: LUCIFERASE INFECTION ASSAY - IC50): 9.03 µM
COc1ccc(-c2cnc3cnc(-c4ccc(OC(F)(F)F)cc4)cn23)cn1 | > 8.54 | IC50 (PBLUC_HILL_SLOPE 11.4, PBLUC_R_SQUARED 0.148, read-out: LUCIFERASE INFECTION ASSAY - IC50): > 8.54 µM
CN(C)c1ccc(NC(=O)N2[C@@H]3CC[C@@H](C3)[C@H]2c2nc3cccc(OCc4ccc(F)cc4)c3[nH]2)cc1 | > 10 | IC50 (PBLUC_HILL_SLOPE 11.3, PBLUC_R_SQUARED 0.0257, read-out: LUCIFERASE INFECTION ASSAY - IC50): > 10 µM

SMILES | IC90 [µM] | other results
CN(C)C(=O)c1cccc(-c2cn3c(-c4ccc(CO)cc4)cnc3cn2)c1 | > 8.86 | IC50 (PBLUC_HILL_SLOPE 11.4, PBLUC_R_SQUARED 0.237, read-out: LUCIFERASE INFECTION ASSAY - IC50): 8.26 µM
Cc1cc(C)nc(SCC(=O)N2CCN(C(=O)c3ccco3)CC2)n1 | 3.74 | IC50 (PBLUC_HILL_SLOPE 11.5, PBLUC_R_SQUARED 0.424, read-out: LUCIFERASE INFECTION ASSAY - IC50): 3.09 µM
CCS(=O)(=O)N1CCC(C(=O)N(Cc2ccccc2)c2nc(-c3ccc(F)cc3)cs2)CC1 | > 10 | IC50 (PBLUC_HILL_SLOPE 11.3, PBLUC_R_SQUARED 0.297, read-out: LUCIFERASE INFECTION ASSAY - IC50): 8.84 µM
CC1Sc2ccc(Cl)cc2C(=O)/C1=C/c1ccc(C(F)(F)F)cc1 (stereo not drawn) | > 8.95 | IC50 (PBLUC_HILL_SLOPE 11.4, PBLUC_R_SQUARED 0.0512, read-out: LUCIFERASE INFECTION ASSAY - IC50): > 8.95 µM
Cc1ccc(NC(=O)C(Sc2nnc3n(-c4ccccc4)c(=O)c4ccccc4n23)c2ccccc2)c([N+](=O)[O-])c1 (stereo not drawn) | > 10 | IC50 (PBLUC_HILL_SLOPE 11.5, 36.4, PBLUC_R_SQUARED 0.176, 0.319, read-out: LUCIFERASE INFECTION ASSAY - IC50): 9.56 µM
CCn1c2ccccc2c2cc(NC(=O)COC(=O)Cc3cccs3)ccc21 | > 10 | IC50 (PBLUC_HILL_SLOPE 11.3, PBLUC_R_SQUARED 0.588, read-out: LUCIFERASE INFECTION ASSAY - IC50): 9.26 µM
Cc1ccc(C(NCC(=O)Nc2cc(S(C)(=O)=O)ccc2Cl)c2ccccc2)cc1C (stereo not drawn) | 4.49 | IC50 (PBLUC_HILL_SLOPE 11.2, PBLUC_R_SQUARED 0.465, read-out: LUCIFERASE INFECTION ASSAY - IC50): 3.69 µM
Cn1c(SCC(=O)NC2CCCc3ccccc32)nnc1-c1cccnc1 (stereo not drawn) | > 10 | IC50 (PBLUC_HILL_SLOPE 11.1, PBLUC_R_SQUARED 0.239, read-out: LUCIFERASE INFECTION ASSAY - IC50): 8.8 µM
O=C(Nc1cccc(Oc2cnccn2)c1)C(c1ccccc1)c1ccccc1 | > 10 | IC50 (PBLUC_HILL_SLOPE 11.4, PBLUC_R_SQUARED 0.171, read-out: LUCIFERASE INFECTION ASSAY - IC50): 8.47 µM
Cn1cc(-c2cc(-c3cccc4ccccc34)cnc2N)cn1 | > 11 | IC50 (PBLUC_HILL_SLOPE 11.1, PBLUC_R_SQUARED 0.24, read-out: LUCIFERASE INFECTION ASSAY - IC50): 10.4 µM
CCc1ccc(Cl)c(CC)c1NC(=O)Cc1c(C)nn(CC(C)C)c1C | 4.06 | IC50 (PBLUC_HILL_SLOPE 11.4, PBLUC_R_SQUARED 0.518, read-out: LUCIFERASE INFECTION ASSAY - IC50): 3.35 µM
NS(=O)(=O)c1ccc(CNC(=O)Cn2cnc3ccccc3c2=O)cc1 | > 8.86 | IC50 (PBLUC_HILL_SLOPE 11.1, PBLUC_R_SQUARED 0.12, read-out: LUCIFERASE INFECTION ASSAY - IC50): > 8.86 µM
CCC(C)c1ccc(NC(=O)Cc2ccc(NS(=O)(=O)c3ccc(Cl)c(Cl)c3)cc2)cc1 (stereo not drawn) | > 10 | IC50 (PBLUC_HILL_SLOPE 11.4, PBLUC_R_SQUARED 0.218, read-out: LUCIFERASE INFECTION ASSAY - IC50): 9.54 µM
C=CCn1c(-c2ccccc2)c(C)sc1=Nc1ccc(Cl)cc1 | > 10 | IC50 (PBLUC_HILL_SLOPE 11.2, PBLUC_R_SQUARED 0.0711, read-out: LUCIFERASE INFECTION ASSAY - IC50): 9.93 µM
CN1CCCN(C(=O)C2CCN(c3oc(-c4ccco4)nc3C#N)CC2)c2nc3ccccc3nc21 | 4.67 | IC50 (PBLUC_HILL_SLOPE 11.5, PBLUC_R_SQUARED 0.327, read-out: LUCIFERASE INFECTION ASSAY - IC50): 3.86 µM
O=C(COC(=O)c1ccc2[nH]c3c(c2c1)CCCC3)c1ccc2c(c1)OCCO2 | 9.92 | IC50 (PBLUC_HILL_SLOPE 11.3, PBLUC_R_SQUARED 0.654, read-out: LUCIFERASE INFECTION ASSAY - IC50): 8.17 µM
COc1ccc(-c2cnc3cnc(-c4cccc(C(=O)N(C)C)c4)cn23)cc1 | 4.08 | IC50 (PBLUC_HILL_SLOPE 11.5, PBLUC_R_SQUARED 0.453, read-out: LUCIFERASE INFECTION ASSAY - IC50): 3.37 µM
CC(Sc1nnc(-c2ccc[nH]2)o1)C(=O)c1ccc(C(C)(C)C)cc1 (stereo not drawn) | > 10 | IC50 (PBLUC_HILL_SLOPE 11.5, PBLUC_R_SQUARED 0.42, read-out: LUCIFERASE INFECTION ASSAY - IC50): 8.92 µM
COc1ccc(-c2cnc3cnc(-c4cccc(C(=O)NCCO)c4)cn23)cn1 | > 8.47 | IC50 (PBLUC_HILL_SLOPE 11.3, PBLUC_R_SQUARED 0.241, read-out: LUCIFERASE INFECTION ASSAY - IC50): 8.2 µM
